Experimental data taken from patent US8058243B2, “Method for treating a brain cancer with ifenprodil” (HSC Research and Development Limited Partnership, priority 2006, dated 2011).
Counter-ions that a name gives are not always drawn. Like-named read-outs stand apart in the source and are kept apart here.

Tested on: murine neural precursor cells (neurosphere cultures)
Assay: HTS of LOPAC library against secondary neurosphere cultures, MTT proliferation assay at 3 μM, day 7 (z score, P value)
Assay type: cell-based, mouse
[1] = LOPAC library screen, 3 μM, MTT, secondary neurosphere cultures, day 7
[2] = LOPAC primary screen, neurosphere MTT proliferation, 3 μM, day 7
[3] = LOPAC screen, neurosphere MTT proliferation, 3 μM, day 7
[4] = yes/no: significantly inhibited neurosphere proliferation (P<0.01) in primary screen
[5] = yes/no: significantly inhibited neurosphere proliferation in primary screen
[6] = yes/no: significantly inhibited neurosphere proliferation (P<0.01) in the primary screen
[7] = LOPAC library screen at 3 μM, secondary neurosphere cultures, MTT
[8] = LOPAC library screen, 3 μM, MTT, neurosphere cultures
[9] = yes = significantly inhibited neurosphere proliferation (P<0.01) in the primary screen

CN(C)CCC(c1ccc(Cl)cc1)c1ccccn1.O=C(O)/C=C\C(=O)O (single isomer, unassigned; (+)) [(+)-Chlorpheniramine maleate]
Activity: no
Z Score [1]: −1.272
Z score [2]: −1.272

CNc1ccc2oc(C[C@H]3O[C@@]4(CC[C@H]3C)O[C@H]([C@H](C)C(=O)c3ccc[nH]3)[C@H](C)C[C@H]4C)nc2c1C(=O)O [Calcimycin]
Z Score: 2.172
Z score [3]: 2.172
Activity [4]: no

Cl.NCC(O)C1CCCCCCC1 (stereo not shown)
Z Score: −0.5747

Oc1ccc2c3c1O[C@H]1c4oc5ccccc5c4C[C@@]4(O)[C@@H](C2)N(CC2CC2)CC[C@]314 [Naltriben methanesulfonate]
Z Score: −0.3606
Z score [2]: −0.361
Activity [5]: no

CCCCCCCCCCCCCCCC(=O)OC(CC(=O)O)C[N+](C)(C)C.[Cl-] (racemic) [Palmitoyl-DL-Carnitine chloride]
Z Score: 0.1995

CNC[C@H](O)c1cccc(O)c1 [Phenylephrine hydrochloride]
Activity: no
Z Score [1]: −1.257
Z score [2]: −1.257

CCCN(CCC)[C@@H]1CCc2c(F)ccc(O)c2C1.Cl [R(+)-UH-301 hydrochloride]
Z Score: −2.517
Z score [2]: −2.517
Activity [6]: yes

CC(=O)SCC[N+](C)(C)C.[Cl-] [Acetyithiocholine chloride]
Z Score: 0.004223

CN(C)CCCN1c2ccccc2Sc2ccc(C(F)(F)F)cc21 [Triflupromazine hydrochloride]
Z Score [1]: −1.82
Z score [2]: −1.820
Activity [6]: no

CC(C)(C)[C@]1(O)CCN2C[C@H]3c4ccccc4CCc4cccc(c43)[C@@H]2C1.Cl [(B1)-Butaclamol hydrochloride]
Z Score: −5.934

COc1ccc(CCN(C)CCCC(C#N)(c2cc(OC)c(OC)c(OC)c2)C(C)C)cc1OC.Cl (stereo not shown) [(B1)-Methoxyverapamil hydrochloride]
Z Score: −1.407

CC#CCOC(=O)c1c(C)nc2sc3c(c2c1N)CCC(O)C3 (stereo not shown) [SB 205384]
Z Score: 0.7968
Z score [2]: 0.797
Activity [5]: no

O=c1[nH]c2cc(C(F)(F)F)ccc2n1-c1cc(C(F)(F)F)ccc1O [NS-1619]
Z Score: −0.4878
Z score [2]: −0.488
Activity [5]: no

CC(=O)Oc1ccccc1C(=O)O [Acetylsalicylic acid]
Z Score [7]: −0.4812

NC(=Nc1ccccc1)NC(=O)c1nc(Cl)c(N)nc1N [Phenamil methanesulfonate]
Z Score [8]: 1.485
Z score [2]: 1.485
Activity [6]: no

CCN1CCCC1CNC(=O)c1cc(S(N)(=O)=O)ccc1OC (stereo not shown) [(B1)-Sulpiride]
Z Score: −0.2841

OCc1cc(C(O)CNCCCCCCOCCCCc2ccccc2)ccc1O (stereo not shown) [Salmeterol]
Activity: no
Z Score [7]: −0.4896
Z score [2]: −0.490

N#Cc1c(-c2ccccc2)no[n+]1[O-] [4-Phenyl-3-furoxancarbonitrile]
Z Score (168 h, 3 µM): 0.9313
Z score (168 h, 3 µM): 0.931
Activity [5]: no

O=c1[nH]cc(F)c(=O)[nH]1 [5-Fluorouracil]
Z Score [1]: −7.749
Z score [2]: −7.749
Activity [9]: yes

Fc1ccc(C(OCCN2CCN(CCCc3ccccc3)CC2)c2ccc(F)cc2)cc1 [GBR-12909 dihydrochloride]
Z Score [1]: −10.9
Z score [2]: −10.899

O=C1N=c2cc(Cl)c(Cl)cc2=NC1=O [6,7-Dichloroquinoxaline-2,3-dione]
Z Score [8]: 0.1274
Z score [3]: 0.127
Activity [4]: no

CN1C(=O)CCS(=O)(=O)C1c1ccc(Cl)cc1 (stereo not shown) [Chlormezanone]
Z Score: −0.9465
Z score [3]: −0.947
Activity [4]: no

COCC(=O)O[C@]1(CCN(C)CCCc2nc3ccccc3[nH]2)CCc2cc(F)ccc2[C@@H]1C(C)C [Mibefradil dihydrochloride]
Z Score [8]: −0.02693
Z score [2]: −0.027
Activity [9]: no

S-(−)-Lisuride
Z Score: −0.1473
Z score: −0.147

O=[N+]([O-])c1cc2nc(O)c(O)nc2cc1[N+](=O)[O-] [DNQX]
Z Score: 0.9307
Z score [3]: 0.931
Activity [4]: no

CC/C(=C(\c1ccccc1)c1ccc(OCCN(C)C)cc1)c1ccccc1 [Tamoxifen citrate]
Activity: yes
Z Score [1]: −10.64
Z score [2]: −10.643

CNCC(O)c1ccc(O)cc1 (racemic) [(±)-Synephrine]
Z score [2]: −0.149
Activity [5]: no

C[C@H](CCC(=O)NCCS(=O)(=O)O)[C@H]1CC[C@H]2[C@@H]3[C@H](O)C[C@@H]4C[C@H](O)CC[C@]4(C)[C@H]3C[C@H](O)[C@]12C [Sodium Taurocholate]
Activity: no
Z Score: −0.7604
Z score: −0.760

CCCn1c(C)c(C(=O)c2cccc3ccccc23)c2ccccc21 [JWH-015]
Z Score: 0.6223
Z score [2]: 0.622
Activity [4]: no

CCCN(CCC)CCc1ccc(O)c(O)c1 [Dipropyldopamine hydrobromide]
Z Score: −1.346
Z score [3]: −1.346

CCN(CC)CC#CCOC(=O)C(O)(c1ccccc1)C1CCCCC1 (stereo not shown) [Oxybutynin Chloride]
Activity: no
Z Score [8]: 0.708
Z score [2]: 0.708

N[C@H](C(=O)O)c1cc(O)no1 (racemic) [(±)-Ibotenic acid]
Z score [2]: −1.650
Activity [4]: no

NC(=O)CN1CC(O)CC1=O (stereo not shown) [Oxiracetam]
Z Score [7]: −0.6131
Z score [2]: −0.613
Activity [5]: no

CC(=O)O.CNC(=N)NCCC[C@H](N)C(=O)O [NG-Monomethyl-L-arginine acetate]
Z Score [1]: −1.386
Z score [2]: −1.386
Activity [9]: no

O=C(CCCN1CC=C(n2c(=O)[nH]c3ccccc32)CC1)c1ccc(F)cc1 [Droperidol]
Activity: no
Z Score [8]: 0.6447
Z score [3]: 0.645

CCCCC1C(=O)N(c2ccccc2)N(c2ccccc2)C1=O [Phenylbutazone]
Z Score [8]: 0.7902
Z score [2]: 0.790

Cl.N=C(N)NC(=N)Nc1cccc(Cl)c1 [1-(m-Chlorophenyl)-biguanide hydrochloride]
Z Score: 1.795
Z score [2]: 1.795
Activity [6]: no

O=C1NCC2(CCN(CCc3ccccc3)CC2)O1 [Fenspiride hydrochloride]
Z Score [7]: −0.5762
Z score [2]: −0.576
Activity [4]: no

Cc1cc(C(C)(C)C)cc(C)c1CC1=NCCN1 [Xylometazoline hydrochloride]
Z Score: 0.296
Z score (primary LOPAC screen, 3 μM, MTT, neurosphere proliferation): 0.296
Activity (yes/no: significantly inhibited neurosphere proliferation in the primary screen): no

Cc1cc(N)c2ccccc2[n+]1CCCCCCCCCCCCCC[n+]1c(C)cc(N)c2ccccc21 [Dequalinium analog, C-14 linker]
Z Score [1]: −11.27
Z score [2]: −11.274
Activity [6]: yes

CNC(=O)[C@H]1O[C@@H](n2cnc3c(N)ncnc32)[C@H](O)[C@@H]1O [5′-N-Methyl carboxamidoadenosine]
Z Score: −2.582
Z score [2]: −2.582
Activity [6]: yes

O=C(O)c1ccccc1Nc1cccc(OCc2ccc3ccccc3n2)c1 [SR 2640]
Z Score: −1.548
Z score [2]: −1.548
Activity [5]: no
